Reference: patent publication US11376230B2 (priority 2011, dated 2022)
Where two headings read alike, the source gives them in different places.

How the values were obtained:
[1] = test system: bacterially infected chronic wounds; details: dressings with 0.2 mg/cm^2 or less on surface, with negative pressure wound therapy; initial results
Protocol: To elucidate the clinical potential of sodium diacetate in wound care human clinical trials are being performed in a hospital setting to test the efficacy of dressings incorporating sodium diacetate on bacterially infected chronic wounds.
Dressings are used employing 0.2 mg/cm^2 or less of sodium diacetate on the surface of the dressing material. Incorporating smaller amounts of sodium diacetate is tested incrementally. Initial trials are performed using negative pressure wound therapy in combination with dressings incorporating sodium diacetate as described herein. Trials are performed on test subjects having chronic wounds due to infection with for example P. aeruginosa and with reduced immune responses due to for example, drug abuse, diabetes, or obesity.

[2] = test system: Klebsiella pneumoniae (clinical ESBL producing strain) biofilm; details: dry sodium diacetate, same method as example 3
Description: (§1) The wild-type P. aeruginosa PAO1 used for the planktonic and biofilm experiments was obtained from the Pseudomonas Genetic Stock Center (www.pseudomonas.med.ecu.edu, strain PAO0001). The wild-type S. aureus 8325-4, used for planktonic and biofilm experiments was described by Novick, R. P. 1967. The following bacteria were obtained from the Department of Clinical Microbiology, Copenhagen University Hospital, Denmark: E. coli (wild type and clinical ESBL producing strains), S. aureus (wild type and clinical MRSA strains) and Klebsiella pneumoniae (clinical ESBL producing strain).
(§2) Two types of biofilm setups were used, micropore filter assay and a microtitter plate assay: • The microtitter plate assay is based on biofilms growing in microtiter dishes with AB minimal medium containing 0.3 mM glucose as described by O′ toole et al (1999). • The Micro-pore assay is based on biofilms growing on a micropore filter on AB minimal agar plates. The micropore filters are placed on top of an AB minimal agar plate. Bacteria are propagated on the micro-pore filters as spots of 20 μl bacterial suspension and incubated at 37° C. For a biofilm to develop the filters were transferred to a fresh AB minimal agar plate once after 24 hours. The biofilm were mature and ready for use after 48 hours incubation in total, at 37° C. Planktonic cultures were grown in shake flasks at 37° C. The microtitter plate assay for biofilm tolerance to sodium diacetate was assessed by exchanging the AB minimal medium of 24 h old biofilms with AB minimal medium supplemented with different concentrations of sodium diacetate.
(§3) To elucidate the efficacy of dry sodium diacetate on microbial biofilms of P. aeruginosa. Bacteria were propagated on a micropore filter for biofilm formation. The Micro-pore filters were placed on top of an LB-agar plate. Bacteria were spread on the micro-pore filters as spots and incubated at 37° C. For a biofilm to develop the filters were transferred to a fresh LB-agar plate once after 24 hours. The biofilm were mature and ready for use after 48 hours incubation in total, at 37° C.
(§4) After 48 hours NaHAc2 was added on top of the biofilm spot, either directly or between two pieces of gauze. The control was plain gauze. All treatments were incubated for 24 hours. The effect was evaluated by replication of the micro pore filter after treatment. The endpoint was growth or no growth of bacteria after the treatment.

[3] = test system: P. aeruginosa mature biofilm
Description: as §1, §2, §3, §4

[4] = test system: E. coli (wild type and clinical ESBL producing strains) biofilm
Description: as §1, §2, §3, §4

[5] = test system: S. aureus (wild type and clinical MRSA strains) biofilm; details: dry sodium diacetate, same method as example 3
Description: as §1, §2, §3, §4

P. aeruginosa biofilms = details: for Average CFU: 24 h treatment of 24 h old biofilm
Description: as §1
For plating, Luria broth (LB) medium mix with 2.0% agar was used. For all experiments including bacterial biofilms, AB minimal medium supplemented with glucose was used except if different is mentioned. AB minimal medium consists of: A standard buffer system consisting of (NH4)2SO4 (15.1 mM), Na2HPO4.2H2O (33.7 mM) and KH2PO4 (22.0 mM. NaCl (0.051 M), MgCl2 (1 mM), CaCl2 (0.1 mM), and trace metals (100 μl/liter). The trace metal solution contained CaSa4.2H2O (200 mg/liter), FeSO4.7H2O (200 mg/liter), MnSO4.H2O (20 mg/liter), CuSO4.5H2O (20 mg/liter), ZnSO4.7H2O (20 mg/liter), CoSO4.7H2O (10 mg/liter), NaMoO4.H2O, and H3BO3 (5 mg/liter).
as §2
The antimicrobial effect was determined by plating the treated and non-treated biofilm. To ensure complete removal of all adhering bacteria the wells of the microtitter plate were washed mechanically.

[6] = 24 hours old static biofilms in AB minimal medium

## CC(=O)O.CC(=O)[O-].[Na+] [sodium diacetate]
0.50% NaHAc2 (w/v) in AB minimal media
  Media pH: 5.78
0.75% NaHAc2 (w/v) in AB minimal media
  Media pH: 5.31
1.00% NaHAc2 (w/v) in AB minimal media
  Media pH: 5.09
1.25% NaHAc2 (w/v) in AB minimal media
  Media pH: 4.99
1.50% NaHAc2 (w/v) in AB minimal media
  Media pH: 4.91
1.75% NaHAc2 (w/v) in AB minimal media
  Media pH: 4.86
2.00% NaHAc2 (w/v) in AB minimal media
  Media pH: 4.83
2.25% NaHAc2 (w/v) in AB minimal media
  Media pH: 4.80
2.50% NaHAc2 (w/v) in AB minimal media
  Media pH: 4.78
2.75% NaHAc2 (w/v) in AB minimal media
  Media pH: 4.76
3.00% NaHAc2 (w/v) in AB minimal media
  Media pH: 4.74
AB minimal media (FIG. 1)
  concentration at which the pH value levels out: around 1.5 g/L
At 3 g/L of sodium diacetate (FIG. 1)
  pH of aqueous AB minimal media: ~4.75
[1]
  infections of chronic wounds: eradicated
  wound healing: accelerated
[2]
  eradication of biofilm infection: completely eradicated
[3]; NaHAc2 on top of 48 h biofilm spot, directly or between two pieces of gauze, 24 hours
  growth or no growth of bacteria after treatment: completely eradicates
[3]; treatment 1: dry between gauze
  growth or no growth of bacteria after treatment: complete eradication
[3]; treatment 2: between gauze soaked in wounds buffer
  growth or no growth of bacteria after treatment: complete eradication
[3]; treatment 3: foam soaked in wounds buffer
  growth or no growth of bacteria after treatment: complete eradication
[3]; treatment 4: dry
  growth or no growth of bacteria after treatment: complete eradication
[4]; between gauze soaked in wounds buffer (FIG. 4)
  growth or no growth of bacteria after treatment: complete eradication
[4]; dry between gauze (FIG. 4)
  growth or no growth of bacteria after treatment: complete eradication
[4]; dry sodium diacetate, same method as example 3, wild type and clinical ESBL producing strains
  eradication of biofilm infection: completely eradicated
[4]; foam soaked in wounds buffer (FIG. 4)
  growth or no growth of bacteria after treatment: complete eradication
[5]
  eradication of biofilm infection: completely eradicated
P. aeruginosa biofilms; 0.25% NaHAc2 (w/v)
  Average CFU: 1.15E+09 CFU
P. aeruginosa biofilms; 0.50% NaHAc2 (w/v)
  Average CFU: 3.12E+08 CFU
P. aeruginosa biofilms; 0.75% NaHAc2 (w/v)
  Average CFU: 9.63E+07 CFU
P. aeruginosa biofilms; 1.00% NaHAc2 (w/v)
  Average CFU: 8.05E+06 CFU
P. aeruginosa biofilms; 1.25% NaHAc2 (w/v)
  Average CFU: 1.96E+05 CFU
P. aeruginosa biofilms; 1.50% NaHAc2 (w/v)
  Average CFU: 1.98E+03 CFU
P. aeruginosa biofilms; 1.75% NaHAc2 (w/v)
  Average CFU: 0 CFU
P. aeruginosa biofilms; 2.00% NaHAc2 (w/v)
  Average CFU: 0 CFU
P. aeruginosa biofilms; 2.25% NaHAc2 (w/v)
  Average CFU: 0 CFU
P. aeruginosa biofilms; 2.50% NaHAc2 (w/v)
  Average CFU: 0 CFU
P. aeruginosa biofilms; 2.75% NaHAc2 (w/v)
  Average CFU: 0 CFU
P. aeruginosa biofilms; 3% NaHAc2 (w/v)
  Average CFU: 0 CFU
P. aeruginosa biofilms; [6]
  concentration at which an effect of the salt is already seen: 0.25 % (W/V)
  concentration giving complete killing of the biofilm bacteria: 1.75 % (W/V)
P. aeruginosa biofilms; 24 hours old static biofilms in AB minimal medium, listed as NaHAc2
  concentration giving complete killing of the biofilm bacteria: ≥ 1.75 % (W/V)
P. aeruginosa biofilms; even the lowest concentrations of NaHAc2
  killing of biofilm: partial killing
